Experimental data from PMC8470881, “Membrane Interactions of Latarcins: Antimicrobial Peptides from Spider Venom” (International Journal of Molecular Sciences, 2021).
No end group written: not given here.

Tests used:
[1] = tested on: human red blood cells; assay: Hemolysis assay; conditions: peptide concentration 128 µg/mL, 30 min, 37 °C
Method: A hemolysis assay was performed to determine the activity of latarcins against human red blood cells, allowing us to compare the results to those of previous experiments in which rabbit erythrocytes were used. The activity was determined for each latarcin as a function of increasing concentration, up to a maximum of 256 µg of peptides per mL. […] The percentage hemolysis of the other peptides was determined at the highest tested concentration of 256 µg/mL.
The influence of latarcins on human erythrocytes was determined by using a hemolysis assay modified from previously published methods. Blood was obtained from the blood bank of the local hospital in Karlsruhe and stabilized with citrate phosphate dextrose buffer. Erythrocyte suspension (5 mL) was taken up in Tris buffer (45 mL, 172 mM, pH 7.6) at room temperature, gently mixed, and centrifuged (1500 rpm, 10 min). The supernatant solution was removed, and Tris wash was repeated twice with 45 mL as above. The washed erythrocytes (1 mL) were suspended in 9 mL Tris buffer to make the stock cell suspension, which was then further diluted to 0.25% (v/v) at 37 °C before use. Peptide stock solutions were prepared with 1024 µg/mL in Tris buffer containing 10% DMSO, and serial dilutions were prepared in the range of 512 µg/mL to 2 µg/mL as described previously. For the positive control, Triton X-100 (200 µL of 0.2% v/v) was used, and as the negative control, Tris buffer (200 µL, 172 mM) was used. Erythrocyte stock cell suspension (200 µL) was added to each of the samples and incubated for 30 min at 37 °C with gentle shaking before determining the percentage of hemolysis as described previously.

[2] = tested on: Bacillus subtilis subsp. spizizenii (DSM 347), Staphylococcus xylosus (DSM 20267), Escherichia coli (DSM 1116), Acinetobacter sp. (DSM 586); conditions: for MIC: irrespective of the bacterial strain (all four strains), Müller-Hinton medium, 20 h at 37 °C, maximum tested 256 µg/mL
Method: The effect of latarcins against four types of bacteria was determined using a minimum inhibitory concentration (MIC) assay on two Gram-positive strains (Bacillus subtilis subsp. spizizenii and Staphylococcus xylosus) and two Gram-negative strains (Escherichia coli and Acinetobacter sp.). Although the antimicrobial activity of latarcins is well documented, these experiments served to ensure that all studies were performed on molecules that show the expected antimicrobial activity.
The minimum inhibitory concentration (MIC) was determined as previously reported. For each latarcin, MIC was determined against two Gram-positive strains, namely Bacillus subtilis subsp. spizizenii (DSM 347) and Staphylococcus xylosus (DSM 20267), and two Gram-negative strains: Escherichia coli (DSM 1116) and Acinetobacter sp. (DSM 586). Bacterial cultures were grown in Müller-Hinton medium (MHM) as described previously, and peptides were dissolved in sterile water containing 10% DMSO. The stock solution of peptides with 1024 µg/mL was prepared such that serial dilutions of peptides (from 256 µg/mL to 2 µg/mL) in MHM were prepared in 96-well plates with the penultimate column without peptide to act as positive control (no peptide) and the final column as negative control (no bacteria). Bacterial stock suspension was made with an OD of 0.2 units at 550 nm. This stock solution was further diluted (1:1000 for Gram-negative bacteria and 1:100 for Gram-positive bacteria), and subsequently, 50 µL of the resulting bacterial suspension was added to the wells except the final well to give a final concentration of 10^6 colony-forming units per mL. Afterwards, the 96-well plates were incubated at 37 °C for 20 h, and cellular respiration was detected by adding 20 µL of resazurin solution (200 µg/mL) for an additional 2 h at the same temperature.

[3] = Oriented circular dichroism (helix alignment in membrane); type: physicochemical; conditions: DMPC/DMPG (7/3), P/L = 1:100, oriented hydrated bilayers, 30 °C
Text: This is the same lipid composition and peptide-to-lipid ratio as was used in conventional CD above (see Figure 2), but in contrast to the vesicular samples containing excess water, the oriented membranes for OCD are just about saturated with water.
The sign and intensity of the 208 nm band provide a characteristic signature of the helix tilt angle in the membrane [19]. For a helical peptide that lies flat on the bilayer surface, this band is the most intense.
To prepare oriented CD (OCD) samples, latarcins depending on their solubility were dissolved either in pure MeOH or CHCl3/MeOH 1/1 (v/v) and thoroughly mixed with appropriate aliquots of DMPC/DMPG solutions (7/3 molar ratio) in the same solvent. Each co-dissolved mixture with a peptide-to-lipid molar ratio of 1/100 was deposited on a quartz glass plate using a gas-tight syringe. To achieve a spot size of 12.5 mm on the 20 mm diameter plates (Suprasil QS, Hellma Optik GmbH, Jena, Germany), a volume of ~55–60 µL was used. The organic solvents were evaporated in a gentle stream of air until the sample appeared dry. The amounts of deposited lipid and peptide on the plate were always 0.29 μmole and 2.9 nmole, respectively. The peptide-lipid-film was further dried under reduced pressure for at least 3 h. Afterwards, each plate with the dried sample was fixed and sealed by a polymer O-ring in a cylindrical sample holder. The plate with the sample and a second window plate without the sample formed a compartment for controlled hydration. The holder was assembled in a custom-built hydration cell. In the inner compartment of the sample holder, the peptide-lipid film was hydrated for about 15 h at 30 °C and 97% relative humidity via the gas phase by a saturated K2SO4 solution contained in an adjacent cavity of the hydration cell. During hydration, the lipids spontaneously align as lipid bilayers that are macroscopically oriented perpendicular to the glass surface. For the measurement, the holder was transferred to an OCD sample cell that had been developed and built in-house [20]. It is computer-controlled and can be integrated into a Jasco spectropolarimeter as an accessory. The optical path runs along the cylindrical axis of the cell, i.e., normal to the quartz glass plate surface carrying the oriented lipid film. To reduce possible spectral artifacts caused by linear dichroism (LD) or linear birefringence (LB) due to imperfections in the sample, strain in the quartz glass or imperfect alignment of the windows, the OCD spectra were recorded in steps of 45° by rotation of the cell around the beam axis [19, 20]. At each angle, two scans were recorded from 260–185 nm as an average, using a scan rate of 20 nm min^−1, 4 s response time, and 1 nm bandwidth.

[4] = Solid-state 15N-NMR (helix alignment in membrane); type: physicochemical; conditions: DMPC/DMPG (7/3), P/L = 1:100, oriented samples, solid-state 15N-NMR, 308 K
Method: While OCD provides a rough picture of the peptide alignment, the helix tilt angle can be measured rather precisely by solid-state NMR using the same type of oriented membrane sample. […] If the peptides are not helical, then the orientation cannot be determined from these ^15N-NMR spectra (which is why CD/OCD need to be performed first), but other information may be available. Oriented NMR samples were prepared at a P/L of 1/100 in DMPC/DMPG (7/3), as for CD/OCD. The ^15N-NMR spectra of all latarcins are summarized in Figure 7, along with the corresponding ^31P-NMR spectra of the phospholipid component. […] This conclusion is supported by the vesicle leakage data above.
Ltc2a, with a chemical shift of 131 ppm, on the other hand, is distinctly tilted in the membrane, as was also observed in the OCD experiments. […] Ltc3a, with a chemical shift of 93 ppm, is tilted only slightly by 10–20°. […] Given that OCD had shown distinct signs of aggregation into β-sheets, we can conclude that Ltc6a binds to the membrane and perturbs the lipid bilayer, but it is not possible to determine the molecular alignment of Ltc6a when it has most likely formed aggregates.
Macroscopically oriented NMR samples were prepared by co-dissolving appropriate amounts of peptides and lipids (in 300 μL methanol, 100 μL CHCl3, and 10–20 μL Milli-Q water) and spreading them onto 23 thin glass plates of dimensions 9 mm × 7.5 mm × 0.08 mm (Marienfeld Laboratory Glassware, Lauda-Königshofen, Germany). The peptide-to-lipid ratio (P/L) is given in mol/mol. The plates were dried in air for 1 h, followed by drying under vacuum overnight. The plates were stacked and placed into a hydration chamber with 96% relative humidity at 48 °C for 18–24 h before wrapping the stack in parafilm and plastic foil for the NMR measurements. All solid-state NMR measurements were carried out on a Bruker Avance 500 MHz spectrometer (Bruker Biospin, Karlsruhe, Germany) at 308 K, as previously reported. The oriented membrane samples were placed in the flat-coil probe such that the lipid bilayer normal was aligned parallel to the magnetic field. ^31P-NMR was used to check the quality of the lipid orientation in the samples, using a Hahn echo sequence with phase cycling. The 90° pulse length was 3.9 µs, the echo time was 30 µs, and 17 kHz ^1H SPINAL64 decoupling was used. ^1H-^15N cross-polarization experiments using a CP-MOIST pulse sequence were performed using a double-tuned probe with a low-E flat-coil resonator (3 mm × 9 mm cross-section), employing a ^1H and ^15N radiofrequency field strength of 65 kHz during the cross-polarization and 25 kHz ^1H SPINAL16 [41] decoupling during acquisition. A mixing time of 500 μs was used, and 10,000 to 30,000 scans were accumulated. The acquisition time was 10 ms, and the recycle time was 3 s. The ^15N chemical shift was referenced using the ^1H-NMR signal of water in the sample.

[5] = Circular dichroism spectroscopy (secondary structure); type: physicochemical; conditions: CD in DMPC/DMPG (7/3) SUVs, P/L = 1:50, 10 mM phosphate buffer pH 7.0, 30 °C, peptide 29.3 μM; deconvolution with CDSSTR, CONTIN-LL, SELCON-3
Text: Next, we compared the secondary structure of the full set of latarcins in the presence of lipid membranes, for which there are no complete data available yet.
The CD line shapes (Figure 2) were deconvoluted to estimate the secondary structure contributions (Supplementary Table S1) using the CDSSTR, CONTIN-LL, and SELCON-3 algorithms provided on the DICHROWEB online server as described previously. […] In peptides containing a high proportion of aromatic residues, such shifts of the long-wavelength band are well documented.
Small unilamellar vesicles (SUVs) for the CD measurements were prepared as follows. Weighed amounts of the lipid powders (DMPC, DMPG) were dissolved in chloroform/methanol 1/1 (v/v) to obtain 5 mg/mL stock solutions. For obtaining mixed DMPC/DMPG liposomes (7/3 molar ratio), the appropriate aliquots of these stock solutions were pipetted in a glass vial and thoroughly vortexed. The organic solvents were removed under a gentle stream of nitrogen gas, followed by 3 h of vacuum pumping in an exsiccator at a reduced pressure of 3-4 mbars to remove solvent residuals from the lipid film that had formed in the vial. The lipid film was dispersed by the addition of 10 mM phosphate buffer (PB) pH 7.0 and homogenized by vigorously vortexing for 10 × 1 min and 10 freeze–thaw cycles. SUVs were formed by sonication of the obtained multilamellar vesicles for 16 min in a strong ultrasonic bath (UTR 200, Hielscher, Germany). The temperature of the water in the ultrasonic bath was adjusted to 35 °C by circulating it through a thermostat to avoid overheating the samples. A weighed amount of the corresponding peptide was dissolved in water resulting in stock solutions with a peptide concentration of 0.5 mg/mL. For the final CD samples, each peptide stock solution was diluted to 29.3 μM and the corresponding lipid dispersion to 1.47 mM in 10 mM PB, resulting in a peptide-to-lipid (P/L) ratio of 1/50.
[…] The samples were measured in a 1-millimeter path length quartz glass cell (Suprasil, Hellma Müllheim, Germany) between 260 and 185 nm at 0.5 nm intervals. Spectra of the liposome samples were recorded at 30 °C, i.e., well above the phase transition temperature of the lipids, using a water-thermostated rectangular cell holder. Three repeat scans at a scan rate of 10 nm min^−1, 8 s response time, and 1 nm bandwidth were averaged for each sample, and the baseline spectrum of the respective peptide-free sample was subtracted from the sample spectrum. CD spectra were smoothened by a Savitzky-Golay filter (convolution width of 15 data points), which is implemented in the Jasco Spectra Analysis software.

Substance | % Hemolysis [1] [%] | MIC [2] | OCD: orientational state of the helix [3] | MIC (relative antimicrobial activity) ([2]; relative activity over two Gram-positive and two Gram-negative strains) | NMR: orientational state of the helix [4] | % Helix (CD) [5] [%]
GLFGKLIKKFGRKAISYAVKKARGKH [Ltc2a] | 100 | below 4 µg/mL | – | – | – | –
H-SMWSGMWRRKLKKLRNALKKKLKGE-OH [Ltc1] | – | below 4 µg/mL | Surface | +++ | Surface | 66
